From patent US20140228311A1, “CRYSTALLIZATION OF IDARUBICIN HYDROCHLORIDE” (HERAEUS PRECIOUS METALS GMBH & CO. KG, priority 2011, published 2014) come the findings set out here.

Counter-ions that a name gives are not always drawn.

What all share (format): physicochemical
Series [1] in a line: Storage of currently available idarubicin hydrochloride under typical storage conditions. Particulars: hydrolysis of the sugar group, increase in 4-demethoxydaunomycinone.
Series [2] in a line: Thermodynamic stability of the crystalline form versus amorphous form. The note with it: compared with amorphous idarubicin hydrochloride.
Series [3] can be described thus: Storage stability of crystalline idarubicin hydrochloride in drying chamber, content analysed by HPLC. Particulars: for Purity of idarubicin hydrochloride: HPLC. The method, then: The crystalline idarubicin hydrochloride obtained in Example 1 was studied for its stability relative to storage at temperatures of 25° C. and 40° C. for various time periods. For this purpose, aliquots of the obtained crystalline idarubicin hydrochlorides were encapsulated individually. One half of the aliquots were stored in a drying chamber at 25° C., the other half were stored in a different drying chamber at 40° C. After the times specified below, individual samples were taken from the drying chambers and the content of idarubicin hydrochloride was analyzed by high performance liquid chromatography (HPLC).

As to `CC(=O)[C@]1(O)Cc2c(O)c3c(c(O)c2[C@@H](O[C@H]2C[C@H](N)[C@H](O)[C@H](C)O2)C1)C(=O)c1ccccc1C3=O` [idarubicin hydrochloride], the Decomposition during storage entry in series [1] is reported as “steady decomposition”.
`CC(=O)[C@]1(O)Cc2c(O)c3c(c(O)c2[C@@H](O[C@H]2C[C@H](N)[C@H](O)[C@H](C)O2)C1)C(=O)c1ccccc1C3=O` [crystalline idarubicin hydrochloride, idarubicin hydrochloride]: the Thermodynamic stability result in series [2] is recorded as “thermodynamically more stable than amorphous idarubicin hydrochloride”. For the same molecule, the “Stability for long storage” value in series [3] (long storage under elevated temperatures) was “extraordinarily high stability”. The “Purity of idarubicin hydrochloride” value in series [3] (storage at 25° C., 0 weeks) worked out at 99.95; in series [3] (storage at 25° C., 1 week), 99.90; in series [3] (storage at 25° C., 2 weeks), 99.87; in series [3] (storage at 25° C., 4 weeks), 99.93; in series [3] (storage at 25° C., 8 weeks), 99.84; in series [3] (storage at 25° C., 24 weeks), 99.91. The “Purity of idarubicin hydrochloride” value in series [3] (storage at 40° C., 0 weeks) was 99.95; in series [3] (storage at 40° C., 1 week), 99.87; in series [3] (storage at 40° C., 2 weeks), 99.87; in series [3] (storage at 40° C., 4 weeks), 99.92; in series [3] (storage at 40° C., 8 weeks), 99.83; in series [3] (storage at 40° C., 24 weeks), 99.91.
